Reference: ChEMBL document CHEMBL1156891, “Pyrrolidine amides of pyrazolodihydropyrimidines as potent and selective KV1.5 blockers” (Bioorg Med Chem Lett, 2010)

Key:
[1] = target: Potassium voltage-gated channel subfamily A member 5 (Homo sapiens, UniProt P22460); test: Inhibition of human Kv1.5 channel expressed in mouse L929 cells; assay type: cell-based; conditions: for inhibition: concentration not given here
[2] = tested on: Oryctolagus cuniculus; test: Prolongation of atrial effective refractory period in rabbit at 1 mg/kg, iv relative to vehicle control; assay type: functional, Cardiac atrium
[3] = Terminal half life in dog at 10 µmol/kg, intra-arterial infusion; conditions: in vivo, read-out: beta t1/2 (converted)
[4] = Terminal half life in rat at 10 µmol/kg, intra-arterial infusion; conditions: in vivo, read-out: beta t1/2 (converted)
[5] = tested on: Oryctolagus cuniculus; test: Prolongation of atrial effective refractory period in rabbit at 0.3 mg/kg, iv relative to vehicle control; assay type: functional, Cardiac atrium
[6] = Clearance in rat at 10 µmol/kg, intra-arterial infusion; conditions: in vivo
[7] = Fraction unbound in rabbit plasma at 10 mg/kg, iv; assay type: ADME, organism-based, Oryctolagus cuniculus; parameters: dose 10 mg/kg, route intravenous
[8] = Volume of distribution at steady state in rat at 10 µmol/kg, intra-arterial infusion; conditions: in vivo, read-out: Vdss
[9] = Volume of distribution at steady state in dog at 10 µmol/kg, intra-arterial infusion; conditions: in vivo, read-out: Vdss
[10] = tested on: Oryctolagus cuniculus; test: Plasma concentration in rabbit at 10 mg/kg, iv; assay type: ADME, organism-based; parameters: dose 10 mg/kg, route intravenous; conditions: in vivo
[11] = tested on: Oryctolagus cuniculus; test: Prolongation of atrial effective refractory period in rabbit at 10 mg/kg, iv relative to vehicle control; assay type: functional, Cardiac atrium
[12] = tested on: Oryctolagus cuniculus; test: Prolongation of atrial effective refractory period in rabbit at 3 mg/kg, iv relative to vehicle control; assay type: functional, Cardiac atrium
[13] = Oral bioavailability in rat at 20 µmol/kg, po; conditions: in vivo
[14] = Clearance in dog at 10 µmol/kg, intra-arterial infusion; conditions: in vivo
[15] = Oral bioavailability in dog at 20 µmol/kg, po; conditions: in vivo

Chain of Potassium voltage-gated channel subfamily A member 5 (P22460 whole entry): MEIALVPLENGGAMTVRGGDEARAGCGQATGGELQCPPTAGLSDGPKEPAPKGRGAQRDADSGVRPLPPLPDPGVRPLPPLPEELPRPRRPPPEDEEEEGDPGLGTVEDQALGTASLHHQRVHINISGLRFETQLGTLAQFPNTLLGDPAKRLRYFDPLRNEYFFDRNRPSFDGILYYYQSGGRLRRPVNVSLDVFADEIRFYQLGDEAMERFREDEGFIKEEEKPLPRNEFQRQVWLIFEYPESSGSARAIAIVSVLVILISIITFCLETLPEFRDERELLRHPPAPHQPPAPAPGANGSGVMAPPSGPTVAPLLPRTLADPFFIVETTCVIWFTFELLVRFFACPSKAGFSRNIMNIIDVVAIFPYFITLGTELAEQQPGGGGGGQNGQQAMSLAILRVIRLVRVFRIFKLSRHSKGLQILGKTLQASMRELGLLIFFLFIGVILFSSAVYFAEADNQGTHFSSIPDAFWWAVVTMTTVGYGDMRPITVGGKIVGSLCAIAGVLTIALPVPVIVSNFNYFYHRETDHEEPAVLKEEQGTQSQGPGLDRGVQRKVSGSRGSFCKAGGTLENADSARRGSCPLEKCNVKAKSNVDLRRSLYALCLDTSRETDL

Q: Which results are given for `COC[C@H]1CCCN1C(=O)C1=C(C)Nc2ccnn2C1c1ccc(Cl)c(Cl)c1` (some centres undefined)?
A: IC50 [1]: > 1000 nM; inhibition [1]: 32%

Q: With `CC1=C(C(=O)N2CCC[C@H]2c2nnn(C)n2)C(c2ccc(Cl)c(Cl)c2)n2nccc2N1` (some centres undefined) as the molecule, how does the IC50 [1] read?
A: The IC50 was 480 nM.

Q: For `CC1=C(C(=O)N2CCCC2c2ccncc2)C(c2ccc(Cl)c(Cl)c2)n2nccc2N1` (centres undefined), which IC50 [1] is on record?
A: The IC50 was 310 nM.

Q: Which IC50 [1] does the source give for `CC1=C(C(=O)N2CCCC2c2cccnc2)C(c2ccc(Cl)c(Cl)c2)n2nccc2N1` (centres undefined) here?
A: Its IC50 is greater than 1000 nM.

Q: And the inhibition [1]?
A: The inhibition was 35%.

Q: With `CC1=C(C(=O)N2CCCC2c2ccccn2)C(c2ccc(Cl)c(Cl)c2)n2nccc2N1` (centres undefined) as the molecule, how does the IC50 [1] read?
A: Its IC50 is 660 nM.

Q: For `CC1=C(C(=O)N2CCC(c3ccc(F)cc3)C2)C(c2ccc(Cl)c(Cl)c2)n2nccc2N1` (centres undefined), which IC50 [1] is on record?
A: Its IC50 is 160 nM.

Q: What does the source list for `CC1=C(C(=O)N2CCC[C@H]2c2nnc(N)s2)C(c2ccc(Cl)c(Cl)c2)n2nccc2N1` (some centres undefined)?
A: IC50 [1]: > 1000 nM; inhibition [1]: 4%

Q: For `COC(=O)[C@@H]1CCCN1C(=O)C1=C(C)Nc2ccnn2C1c1ccc(Cl)c(Cl)c1` (some centres undefined), which IC50 [1] is on record?
A: Its IC50 is 150 nM.

Q: Which IC50 [1] does the source give for `CC1=C(C(=O)N2CCC[C@H]2c2n[nH]c(=O)n2C)C(c2ccc(Cl)c(Cl)c2)n2nccc2N1` (some centres undefined) here?
A: The IC50 was greater than 1000 nM.

Q: What about the inhibition [1] of the same molecule?
A: The inhibition was 11%.

Q: Which IC50 [1] does the source give for `CC1=C(C(=O)N2CCCC2c2ccccc2)C(c2ccc(Cl)c(Cl)c2)n2nccc2N1` (centres undefined) here?
A: Its IC50 is 150 nM.

Q: For `CC1=C(C(=O)N2CCC[C@H]2c2nc(C)c(C)s2)C(c2ccc(Cl)c(Cl)c2)n2nccc2N1` (some centres undefined), which IC50 [1] is on record?
A: The IC50 was 300 nM.

Q: For `CC1=C(C(=O)N2CCCC2c2ccc(F)cc2)C(c2ccc(Cl)c(Cl)c2)n2nccc2N1` (mixture of isomers; 7), which IC50 [1] is on record?
A: The IC50 was 70 nM.

Q: Which IC50 [1] does the source give for `CC1=C(C(=O)N2CCCC2c2ccc(F)cc2)C(c2ccc(Cl)c(Cl)c2)n2nccc2N1` (mixture of isomers; 7a) here?
A: Its IC50 is 2100 nM.

Q: Which IC50 [1] does the source give for `CC1=C(C(=O)N2CCCC2c2ccc(F)cc2)C(c2ccc(Cl)c(Cl)c2)n2nccc2N1` (mixture of isomers; 7b) here?
A: Its IC50 is 1800 nM.

Q: Which IC50 [1] does the source give for `CC1=C(C(=O)N2CCCC2c2ccc(F)cc2)C(c2ccc(Cl)c(Cl)c2)n2nccc2N1` (mixture of isomers; 7c) here?
A: Its IC50 is 150 nM.

Q: For `CC1=C(C(=O)N2CCC[C@H]2c2nc(C)no2)C(c2ccc(Cl)c(Cl)c2)n2nccc2N1` (stereo in doubt; 13a) [listing 1 of 2 here], which IC50 [1] is on record?
A: The IC50 was greater than 1000 nM.

Q: For `CC1=C(C(=O)N2CCC[C@H]2c2nc(C)no2)C(c2ccc(Cl)c(Cl)c2)n2nccc2N1` (stereo in doubt; 13a) [listing 2 of 2 here], which inhibition [1] is on record?
A: The inhibition was 22%.

Q: Which IC50 [1] does the source give for `CC1=C(C(=O)N2CCC[C@H]2c2nc(C)no2)C(c2ccc(Cl)c(Cl)c2)n2nccc2N1` (stereo in doubt; 13b) here?
A: The IC50 was 160 nM.

Q: With `CC1=C(C(=O)N2CCC[C@H]2c2nnn[nH]2)C(c2ccc(Cl)c(Cl)c2)n2nccc2N1` (stereo in doubt; 14a) [listing 1 of 2 here] as the molecule, how does the IC50 [1] read?
A: The IC50 was greater than 1000 nM.

Q: Which inhibition [1] does the source give for `CC1=C(C(=O)N2CCC[C@H]2c2nnn[nH]2)C(c2ccc(Cl)c(Cl)c2)n2nccc2N1` (stereo in doubt; 14a) [listing 2 of 2 here] here?
A: Its inhibition is 4%.

Q: Which inhibition [1] does the source give for `CC1=C(C(=O)N2CCC[C@H]2c2nnn[nH]2)C(c2ccc(Cl)c(Cl)c2)n2nccc2N1` (stereo in doubt; 14b) here?
A: Its inhibition is 8%.

Q: For `CC1=C(C(=O)N2CCC[C@H]2c2nnc[nH]2)C(c2ccc(Cl)c(Cl)c2)n2nccc2N1` (stereo in doubt; 17a) [listing 1 of 2 here], which IC50 [1] is on record?
A: Its IC50 is greater than 1000 nM.

Q: For `CC1=C(C(=O)N2CCC[C@H]2c2nnc[nH]2)C(c2ccc(Cl)c(Cl)c2)n2nccc2N1` (stereo in doubt; 17a) [listing 2 of 2 here], which inhibition [1] is on record?
A: The inhibition was 19%.

Q: For `CC1=C(C(=O)N2CCC[C@H]2c2nnc[nH]2)C(c2ccc(Cl)c(Cl)c2)n2nccc2N1` (stereo in doubt; 17b), which inhibition [1] is on record?
A: Its inhibition is 3%.

Q: Which IC50 [1] does the source give for `CC1=C(C(=O)N2CCC[C@H]2c2cc(C)no2)C(c2ccc(Cl)c(Cl)c2)n2nccc2N1` (stereo in doubt; 20a) [listing 1 of 2 here] here?
A: The IC50 was greater than 1000 nM.

Q: Which inhibition [1] does the source give for `CC1=C(C(=O)N2CCC[C@H]2c2cc(C)no2)C(c2ccc(Cl)c(Cl)c2)n2nccc2N1` (stereo in doubt; 20a) [listing 2 of 2 here] here?
A: Its inhibition is 21%.

Q: Which IC50 [1] does the source give for `CC1=C(C(=O)N2CCC[C@H]2c2cc(C)no2)C(c2ccc(Cl)c(Cl)c2)n2nccc2N1` (stereo in doubt; 20b) here?
A: Its IC50 is 110 nM.

Q: Which IC50 [1] does the source give for `CC1=C(C(=O)N2CCC[C@H]2c2cc(C)on2)C(c2ccc(Cl)c(Cl)c2)n2nccc2N1` (stereo in doubt; 21a) [listing 1 of 2 here] here?
A: The IC50 was greater than 1000 nM.

Q: With `CC1=C(C(=O)N2CCC[C@H]2c2cc(C)on2)C(c2ccc(Cl)c(Cl)c2)n2nccc2N1` (stereo in doubt; 21a) [listing 2 of 2 here] as the molecule, how does the inhibition [1] read?
A: The inhibition was 38%.

Q: For `CC1=C(C(=O)N2CCC[C@H]2c2cc(C)on2)C(c2ccc(Cl)c(Cl)c2)n2nccc2N1` (stereo in doubt; 21b), which IC50 [1] is on record?
A: Its IC50 is 90 nM.

Q: With `CC1=C(C(=O)N2CCC[C@H]2c2ccc(F)cc2)[C@@H](c2ccc(Cl)c(Cl)c2)n2nccc2N1` [BMS-394136] as the molecule, how does the Activity [2] read?
A: Its Activity is 0.37%.

Q: What about the half-life [3] of the same molecule?
A: The half-life was 90 min.

Q: What about the half-life [4] of the same molecule?
A: Its half-life is 34.2 min.

Q: And the IC50 [1]?
A: The IC50 was 50 nM.

Q: And the Activity [5]?
A: The Activity was 0.13%.

Q: And the clearance [6]?
A: Its clearance is 35 mL/min/kg.

Q: And the fraction unbound [7]?
A: The fraction unbound was 0.03.

Q: What about the Vd [8] of the same molecule?
A: The Vd was 1.6 L/kg.

Q: What about the Vd [9] of the same molecule?
A: Its Vd is 2.1 L/kg.

Q: What about the concentration [10] of the same molecule?
A: Its concentration is 7 µM.

Q: And the Activity [11]?
A: Its Activity is 6.95%.

Q: What about the Activity [12] of the same molecule?
A: The Activity was 1.37%.

Q: What about the bioavailability [13] of the same molecule?
A: The bioavailability was 51%.

Q: What about the clearance [14] of the same molecule?
A: The clearance was 42 mL/min/kg.

Q: And the bioavailability [15]?
A: The bioavailability was 37%.
